Measurements from patent US20250042983A1, “ANTI-LCN-2 ANTIBODIES AS A TREATMENT FOR EYE DISORDERS” (UNIVERSITY OF PITTSBURGH - OF THE COMMONWEALTH SYSTEM OF …, priority 2021, published 2025).
Entries after “also recorded” stand apart in the source; their conditions may differ. Blank lines part the entries; values can stand above or below the molecule they belong to.

How the values were obtained:
[1] = system: ARPE19 cells; assay: Live cell imaging of lipid peroxidation with liperfluo dye; assay type: cell-based, human
Method: To assess the levels of lipid peroxidation in RPE cells, ARPE19 cells were cultured on four chambered dishes (VWR, 627871) and then either left untreated (control) or treated with 250 μM of ferric ammonium citrate (FAC) for 72 h to mimic the increased iron levels in vivo, followed by Ad-LCN-2 (10^7 vg/ml) for the last 48 h and chloroquine (50 μM) for the last 6 h of the experimental duration respectively. RSL3 (3 μM, overnight; Cayman Chemicals, 19288) was used as a positive control for ferroptosis activation. The clone #6 monoclonal antibody targeting LCN-2 (mAb; 1 μg/ml, 24 h) antibody and 25 μM (overnight) of ferrostatin-1 (Cayman Chemicals, 17729) were added to the culture to rescue ferroptosis induction in the RPE cells. Prior to imaging, the cells were incubated with Liperfluo (10 μM, Fisher Scientific, L24810) for 30 min, and washed twice with PBS before replacing the original media in each chamber. […] Liperfluo was excited using a diode-pumped light engine (SPECTRA X, Lumencor) and detected using an Prime95b sCMOS camera (Photometrics) and excitation and emission filters from Chroma. […] Data was collected and liperfluo emissions were analyzed using NIS Elements (Nikon, Inc. Melville, NY).

[2] = system: ARPE19 cells; assay: Estimation of autophagosome number in RPE cells (GFP-RFP-LC3 puncta); assay type: cell-based, human; conditions: chloroquine as positive control
Method: The cells were then treated with 10^7 vg/ml of an Ad-LCN-2 construct (as described above) for 48 h. […] Confocal images were acquired at 60× using Nikon NIS Elements v5.3(Nikon, Melville NY). 3D spot detection was used to segment positive structures for size, shape and intensity for RFP/GFP, and RFP only puncta were identified.

[3] = system: Cryba1 KO RPE explants; assay: Rescue experiments in RPE explants exposed to FAC and Ad-LCN-2 (Western blot, ROS); assay type: cell-based, mouse; conditions: pre-treatment, then FAC and Ad-LCN-2
Excerpt: RPE explant culture was done as previously described (Shang et al., Commun. Biol., 4(1): 850 (2021)). Briefly, eyeballs were enucleated from WT, Cryba1 KO, Sting KO or Sting^GT mice respectively, immediately after euthanasia by putting in CO2 chamber. The posterior eyecups were cut into four petals after the removal of anterior segments and the neural retina was carefully removed. The resulting RPE-Choroid-Sclera (RCS) complexes were flattened onto PVDF membranes with the RPE cells facing up and cultured as previously described. For experiments involving iron regulation, RPE explants from different genotypes were cultured in presence of ferric ammonium citrate (FAC, Sigma Aldrich, RES20400-A702X) at a dose of 250 μM for 72 h (Hadziahmetovic et al., Am. J Pathol., 179(1): 335-48 (2011)); Chothe et al., Biochem. Biophys. Res. Commun., 405(2): 244-9 (2011)), Adenovirus-LCN-2 (10^7 vg/ml, Ad-LCN-2, Vector Biolabs, ADV-263329) construct for 48 h and with or without chloroquine (ChQ; Sigma Aldrich, C6628-25G), a lysosomal blocker at a dose of 50 μM for the last 6 h of the experimental duration. For rescue experiments, Cryba1 KO explants were cultured and pre-treated with either Def (100 μM for 24 h; Sigma Aldrich, D9533-1G) or Sting inhibitor (H-151; 1 μM for 6 hours; Invitrogen, inh-h151) which was followed by FAC and Ad-LCN-2 treatment as explained above.
Whole cells lysates were made from RPE cells harvested from Cryba1^fl/fl or Cryba1 cKO mice or from in vitro RPE flat mount cultures from different experimental conditions as explained previously. The lysates were either made in 1×RIPA buffer (EMD Milipore, Cat #20-188) or NATIVE lysis buffer (Abcam, ab156035) containing 0.1% of a protease inhibitor cocktail (Sigma Aldrich, 13786) and 0.1% phosphatase inhibitor cocktail (Sigma Aldrich, P0044-5ML). The protein extracts were subjected to quantification by using the Pierce BCA Protein Assay Kit (Thermo Fisher, 23225). The RIPA protein samples were mixed with 4× protein sample buffer (Life Technologies, NP0007) containing 5% 2-mercaptoethanol (Sigma Aldrich, M6256) and heated at 95° C. for 10 min to denature. The native protein samples were mixed with NATIVE sample buffer (Bio-Rad, 1610738) at a 1:1 ratio. The native samples were loaded on NATIVE-PAGE gels (Thermo Fisher, BN1002BOX) and run using NATIVE-PAGE running buffer (Thermo Fisher, BN2001). Samples were loaded onto a 4-12% Bis-Tris Nu-PAGE gel (Invitrogen, NP0323BOX) and run with MES buffer (Invitrogen, NP0002). Proteins were transferred to nitrocellulose membranes (Invitrogen, 1B23001), which were then blocked in 5% blocking grade skim milk (Bio-Rad, 170-6404) or 5% BSA (Sigma Aldrich, A3912-50G) for phosphorylated proteins. The membranes were incubated with the appropriate primary antibody overnight followed by horseradish peroxidase-conjugated anti-rabbit (KPL, 074-1506) or anti-mouse (KPL, 074-1806) secondary antibodies for 1 h at RT. A chemiluminescence development technique was utilized to develop the blots (GE Healthcare, RPN2209) and the blots were imaged using the Azure imaging system (Azure Biosystems, USA). […]
The ROS generation in 10-month-old RPE cells from Cryba1^fl/fl and Cryba1 cKO mice was evaluated as described previously (Ghosh et al., Cell Signal., 68: 109521 (2020)). […]

[4] = target: T1, Human ATG4B (Homo sapiens, UniProt Q9Y4P1); assay: Thermal shift assay with sypro orange; assay type: binding; conditions: ATG4B incubated with human LCN-2, vs ATG4B only
T1 construct: purchased Abcam ab188707
T1 sequence (Q9Y4P1 1-393): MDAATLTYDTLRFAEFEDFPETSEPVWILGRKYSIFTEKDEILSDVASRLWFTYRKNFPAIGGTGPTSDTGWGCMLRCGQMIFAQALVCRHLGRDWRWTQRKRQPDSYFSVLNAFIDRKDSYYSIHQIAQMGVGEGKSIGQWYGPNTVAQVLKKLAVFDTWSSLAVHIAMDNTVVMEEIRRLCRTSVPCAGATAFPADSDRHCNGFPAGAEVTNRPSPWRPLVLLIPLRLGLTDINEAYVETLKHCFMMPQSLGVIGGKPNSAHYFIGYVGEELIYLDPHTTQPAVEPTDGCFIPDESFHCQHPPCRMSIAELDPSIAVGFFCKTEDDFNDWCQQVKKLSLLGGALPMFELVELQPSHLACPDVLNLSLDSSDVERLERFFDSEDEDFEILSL
Method: (§1) Changes in melting temperature (Tm) was assessed to evaluate the binding propensity of LCN-2 and ATG4B. Human ATG4B (Abcam, ab188707) at a dose of 0.5 μg/ml with or without 1 μg/ml of human LCN-2 (R&D Systems, 1757-LC-050) and 5 μM sypro orange (Thermo Fisher, S-6650) were incubated for 30 min at 4° C. The change in Tm was evaluated in a quantitative PCR machine (ABI Systems, USA) using a previously published method (Huynh et al., Curr. Protoc. Protein Sci., 79: 28.9.1-28.9.14 (2015); Layton et al., Protein Sci., 20(8): 1439-50 (2011)).

[5] = target: T1, Human ATG4B; assay: Cell free ATG4B activity assay (LC3-GST cleavage); assay type: biochemical; conditions: ATG4B 0.5 μg/ml, LCN-2 1.0 μg/ml, 15 minutes; listed as human recombinant LCN-2
Method: ATG4B activity assay was measured by incubating recombinant human LC3-GST (Enzo, BML-UW1155-0500) at a dose of 20 μg/ml with 0.5 μg/ml of human ATG4B (Abcam, ab188707) with or without human LCN-2 (R&D Systems, 1757-LC-050) at a dose of 1 μg/ml for 15 min at room temperature (Pengo et al., Nat. Commun., 8(1): 294 (2017)). The protein samples were then mixed with 4× protein sample buffer (Life Technologies, NP0007) containing 5% 2-mercaptoethanol (Sigma Aldrich, M6256) and heated at 95° C. for 10 min to denature. The samples were then subjected to Western blot using the anti-GST primary antibody (Cell Signaling USA, 2622S) as previously explained (Ghosh et al., J. Pathol., 241(5): 583-588 (2017); Shang et al., Aging Cell, 16(2): 349-359 (2017)).

[6] = system: ATG4B activity; assay: GFP-LC3-RFP-ΔLC3 construct and flow cytometry (ATG4B-mediated LC3 processing); assay type: cell-based, human; conditions: recombinant LCN-2 1.0 μg/ml for 24 h; relative to control
Method: ARPE19 cells were cultured up to 60% confluency and then transfected with the GFP-LC3-RFP-ΔLC3 construct (Addgene, 84572), to assess ATG4B activity, using the manufacturer's protocol of the Lipofectamine 3000 Transfection Reagent (Thermo Fisher, L3000008) for 72 h (Ghosh et al., Commun. Biol., 4(1): 248 (2021)). The transfection efficiency was confirmed by visualizing the GFP and RFP signals in the transfected cells using a fluorescence microscope. This was followed by infection with an Ad-LCN-2 construct (as described above) for 48 h and treatment with recombinant human LCN-2 protein (R&D Systems, 1757-LC-050) at a dose of 1 μg/ml for 24 h in separate experiments. The cells were then scraped off the plates and were analyzed by flow cytometry using the LSR-II platform ([…]). The results were analyzed using the FlowJo software (v10.8) and the data from each group was represented as the ratio of median GFP fluorescence to RFP fluorescence (Kaizuka et al., Mol. Cell, 64(4): 835-849 (2016); Ghosh et al., Commun. Biol., 4(1): 248 (2021)).

[7] = target: T2, recombinant human ATG4B (Abcam, ab188707) (human, UniProt Q9Y4P1 1-393, limits assumed); assay: thermal shift assay with sypro orange
T2 construct: Bought recombinant protein; also called human recombinant ATG4B; Autophagy Related 4B Cysteine Peptidase
T2 sequence (looked up): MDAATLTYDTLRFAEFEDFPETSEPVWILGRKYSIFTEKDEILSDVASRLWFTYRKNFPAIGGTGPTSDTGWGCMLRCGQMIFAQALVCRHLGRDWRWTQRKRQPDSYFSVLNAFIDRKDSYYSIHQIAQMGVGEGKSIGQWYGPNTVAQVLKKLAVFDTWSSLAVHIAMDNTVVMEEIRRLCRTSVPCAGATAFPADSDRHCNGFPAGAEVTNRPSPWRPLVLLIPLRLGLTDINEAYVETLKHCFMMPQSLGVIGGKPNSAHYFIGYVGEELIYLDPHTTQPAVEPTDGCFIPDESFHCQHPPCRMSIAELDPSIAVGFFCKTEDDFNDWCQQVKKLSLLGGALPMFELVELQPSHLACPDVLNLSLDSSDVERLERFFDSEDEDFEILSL
Method: FIGS. 2C-2D are line (2C) and dot plot (2D) graphs showing the results of a thermal shift assay. […] The melting temperature is reflective of the change in sypro orange fluorescence (arbitrary units) which was added (5 μM) to each reaction mixture. n=4. All values are Mean±SD. Significant change is indicated by *P<0.05.
as §1

Molecule: COC(=O)c1ccc([C@@H]2c3[nH]c4ccccc4c3C[C@@H](C(=O)OC)N2C(=O)CCl)cc1 [RSL3, reference compound]
lipid peroxidation (liperfluo emission intensity) ([1]; RSL3 alone as positive control, compared to control): induced lipid peroxidation; also recorded: higher iperfluo emission intensity

Molecule: CCN(CC)CCCC(C)Nc1ccnc2cc(Cl)ccc12 (stereo not shown) [Chloroquine, chloroquine]
number of puncta (autophagosomes) [2]: highly increased puncta

Molecule: CCOC(=O)c1ccc(NC2CCCCC2)c(N)c1 [ferrostatin-1, reference compound]
lipid peroxidation (liperfluo emission intensity) ([1]; ferrostatin-1 pre-treatment of FAC+Ad-LCN-2+Chloroquine (FLC) treated cells): could rescue the lipid peroxidation; also recorded: abrogated the changes

Molecule: CCc1ccc(NC(=O)Nc2c[nH]c3ccccc23)cc1 [Clone H-151]
STING levels (Western blot) [3]: such changes were not observed
cGAS levels (Western blot) [3]: such changes were not observed
NLRP3 levels (Western blot) ([3]; vs vehicle (DMSO)): significantly reduced; also recorded: rescued the levels of NLRP3 inflammasome expression
SOD1 levels (Western blot) ([3]; vs vehicle (DMSO)): decreased
ROS levels ([3]; vs vehicle, listed as STING inhibitor): decreased; also recorded: rescued

binding result [7]: binds
B1: human recombinant LCN-2 (R&D Systems, 1757-LC-050) (other)
chain: QDSTSDLIPAPPLSKVPLQQNFQDNQFQGKWYVVGLAGNAILREDKDPQKMYATIYELKEDKSYNVTSVLFRKKKCDYWIRTFVPGCQPGEFTLGNIKSYPGLTSYLVRVVSTNYNQHAMVFFKKVSQNREYFKITLYGRTKELTSELKENFIRFSKSLGLPENHIVFPVPIDQCIDG
notes: Bought protein; also called human LCN-2 protein; recombinant human LCN-2
melting temperature (Tm) shift of ATG4B ([4]; listed as human LCN-2 protein): increase in melting temperature
melting temperature (Tm) shift of ATG4B ([4]; listed as human recombinant LCN-2): consistent with binding between the two proteins
ATG4B activity (GST cleavage from LC3-GST, Western blot) [5]: Decreased GST cleavage; also recorded: could inhibit LC3 processing through the inhibition of Atg4b activity
GFP/RFP ratio (LC3 processing/lipidation) [6]: GFP fluorescence was increased; also recorded: increase in the GFP/RFP ratio
